Laboratory results: PubChem BioAssay (NCI)
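Protocol summary: plate cells (96-well), add compound at 5 concentrations, incubate 48 h, interpolate endpoints linearly. The concentration for full growth arrest is given as TGI.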

Experiments:
Experiment in all cases: DTP human tumour cell line panel, 48 h
NCI/ADR-RES ovarian = tested on: NCI/ADR-RES ovarian
UO-31 renal = tested on: UO-31 renal
RPMI-8226 leukemia = tested on: RPMI-8226 leukemia
NCI-H522 lung = tested on: NCI-H522 lung
OVCAR-8 ovarian = tested on: OVCAR-8 ovarian
DU-145 prostate = tested on: DU-145 prostate
SK-MEL-28 melanoma = tested on: SK-MEL-28 melanoma
SN12C renal = tested on: SN12C renal
MDA-MB-231 breast = tested on: MDA-MB-231 breast
SK-MEL-5 melanoma = tested on: SK-MEL-5 melanoma
SW-620 colon = tested on: SW-620 colon
MDA-N = tested on: MDA-N
MALME-3M melanoma = tested on: MALME-3M melanoma
HCT-15 colon = tested on: HCT-15 colon
T-47D breast = tested on: T-47D breast
RXF 393 renal = tested on: RXF 393 renal
OVCAR-3 ovarian = tested on: OVCAR-3 ovarian
SF-295 CNS = tested on: SF-295 CNS
SR leukemia = tested on: SR leukemia
A549 NSCLC = tested on: A549 NSCLC
HS 578T breast = tested on: HS 578T breast
M14 melanoma = tested on: M14 melanoma
PC-3 prostate = tested on: PC-3 prostate
UACC-62 melanoma = tested on: UACC-62 melanoma
SF-268 CNS = tested on: SF-268 CNS
NCI-H226 lung = tested on: NCI-H226 lung
EKVX NSCLC = tested on: EKVX NSCLC
786-0 renal = tested on: 786-0 renal
U251 CNS = tested on: U251 CNS
CCRF-CEM leukemia = tested on: CCRF-CEM leukemia
SK-MEL-2 melanoma = tested on: SK-MEL-2 melanoma
COLO 205 colon = tested on: COLO 205 colon
NCI-H460 lung = tested on: NCI-H460 lung
ACHN renal = tested on: ACHN renal
BT-549 breast = tested on: BT-549 breast
K-562 leukemia = tested on: K-562 leukemia
IGROV1 ovarian = tested on: IGROV1 ovarian
MCF7 breast = tested on: MCF7 breast
KM12 colon = tested on: KM12 colon
OVCAR-5 ovarian = tested on: OVCAR-5 ovarian
HL-60(TB) leukemia = tested on: HL-60(TB) leukemia
SK-OV-3 ovarian = tested on: SK-OV-3 ovarian
SF-539 CNS = tested on: SF-539 CNS
OVCAR-4 ovarian = tested on: OVCAR-4 ovarian
SNB-19 CNS = tested on: SNB-19 CNS
MDA-MB-435 = tested on: MDA-MB-435
UACC-257 melanoma = tested on: UACC-257 melanoma
HT29 colon = tested on: HT29 colon
HCT-116 colon = tested on: HCT-116 colon
NCI-H23 lung = tested on: NCI-H23 lung
LOX IMVI melanoma = tested on: LOX IMVI melanoma
SNB-75 CNS = tested on: SNB-75 CNS
MOLT-4 leukemia = tested on: MOLT-4 leukemia
HCC-2998 colon = tested on: HCC-2998 colon
CAKI-1 renal = tested on: CAKI-1 renal
HOP-62 NSCLC = tested on: HOP-62 NSCLC
TK-10 renal = tested on: TK-10 renal
HOP-92 NSCLC = tested on: HOP-92 NSCLC
A498 renal = tested on: A498 renal

Measured: TGI

Cc1ccc(Nc2nc3ccccc3c(=O)n2N)cc1
not listed: A498 renal
> 100 µM: all other assays above

COC(=O)C(=O)C(C(=O)C(=O)Nc1ccc([N+](=O)[O-])cc1[N+](=O)[O-])c1nc2ccc(Cl)cc2[nH]c1=O (stereo not drawn)
90.8 µM: HS 578T breast
73.1 µM: SNB-75 CNS
not listed: NCI-H522 lung | MALME-3M melanoma | EKVX NSCLC | CCRF-CEM leukemia | IGROV1 ovarian | HOP-62 NSCLC | TK-10 renal
> 100 µM: all other assays above

COc1ccc([C@H]2CC(=O)C[C@H](c3ccc(OC)cc3OC)C23C(=O)c2ccccc2C3=O)c(OC)c1
not listed: A498 renal
> 100 µM: all other assays above
